Among the test systems are MDA-MB-435; M14; HCC 2998; UACC-62; T47D; DU-145; NCI/ADR-RES; NCI-H226; SN12C; NCI-H23; HL-60; LOX IMVI; SF-539; OVCAR-4; U-251; TK-10; HOP-92; 786-0; ACHN; CCRF-CEM.
Common to all, as to experiment: NCI tumour cell line growth inhibition, 48 h

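Growth conditions: 96-well plates. Treatment: test compound, 48 hours, 5 concentrations. Analysis: linear interpolation between bracketing concentrations; unreached endpoints set to highest concentration. GI50 = concentration required for 50% inhibition of growth.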 The source made the active and inactive calls. Rule as the data show it: active = GI50 up to about 1.1 µM and inactive = higher. A value given as a limit tells only on which side of the number the result lay.

Take `CC(=O)Nc1ccc(-c2nc3ccccc3s2)cc1Cl`: the GI50 with MDA-MB-435 is > 100 µM (inactive); in the assay with M14, 68.7 µM (inactive); in the assay on HCC 2998 it was 0.23 µM (active); in the assay on UACC-62, > 73.5 µM (inactive); in the assay with T47D, 0.395 µM (active); in the assay with DU-145, 55.6 µM (inactive). The GI50 in the assay on NCI/ADR-RES was > 86.9 µM (inactive); in the assay on NCI-H226, 0.762 µM (active); in the assay with SN12C, > 100 µM (inactive); in the assay with NCI-H23, 51.4 µM (inactive); in the assay with HL-60, > 100 µM (inactive); with LOX IMVI it was > 86.5 µM (inactive). The GI50 in the assay with SF-539 was 16.3 µM (inactive); with OVCAR-4 it was > 100 µM (inactive); in the assay on U-251, > 84.1 µM (inactive); in the assay on TK-10, 0.0664 µM (active); in the assay with HOP-92, 54.2 µM (inactive); with 786-0, > 78.3 µM (inactive). In addition, the GI50 with ACHN is > 74 µM (inactive); in the assay on CCRF-CEM it was > 100 µM (inactive).
With `Nc1ccc(-c2ccc(Nc3cc(S(=O)(=O)O)c(N)c4c3C(=O)c3ccccc3C4=O)cc2)c(S(=O)(=O)O)c1`, the GI50 in the assay on MDA-MB-435, with M14, with HCC 2998, with UACC-62, in the assay on T47D and in the assay with DU-145 was > 100 µM (inactive) in each case. For the same compound, the GI50 in the assay with NCI/ADR-RES, in the assay on NCI-H226, in the assay on SN12C, with NCI-H23, in the assay on HL-60 and in the assay on LOX IMVI was > 100 µM (inactive) each time. Also, the GI50 in the assay with SF-539, in the assay on OVCAR-4, with U-251, with TK-10, in the assay on HOP-92 and with 786-0 was > 100 µM (inactive) in each case. Also, the GI50 with ACHN and in the assay with CCRF-CEM was > 100 µM (inactive) each time.
With `CCCCOC(=O)N[C@H]1CCc2cc(OC)c(OC)c(OC)c2-c2ccc(SC)c(=O)cc21`, the GI50 is < 0.01 µM (active) with MDA-MB-435; < 0.01 µM (active) in the assay with M14; < 0.01 µM (active) in the assay on HCC 2998; < 0.01 µM (active) with UACC-62; 18.1 µM (inactive) with T47D; < 0.01 µM (active) in the assay on DU-145. Further, the GI50 in the assay on NCI/ADR-RES was < 0.01 µM (active); with NCI-H226, 0.0931 µM (active); with SN12C, < 0.01 µM (active); in the assay on NCI-H23 it was < 0.01 µM (active); in the assay on HL-60 it was 0.0123 µM (active); with LOX IMVI, < 0.01 µM (active). Moreover, the GI50 in the assay on SF-539 was < 0.01 µM (active); in the assay with OVCAR-4, 2.2 µM (inactive); with U-251, < 0.01 µM (active); in the assay with TK-10, 0.198 µM (active); in the assay on HOP-92, < 0.01 µM (active); with 786-0, < 0.01 µM (active). Besides, the values for the GI50 in the assay on ACHN and in the assay with CCRF-CEM were < 0.0114 µM (active) and < 0.01 µM (active), respectively.
As for `Cc1ccc(S(=O)(=O)N/N=C2\CC3C4C=CC3C2C4)cc1` (stereo not given), the GI50 with MDA-MB-435, in the assay with M14, with HCC 2998, with UACC-62, in the assay on T47D and in the assay on DU-145 was > 100 µM (inactive) in each case. The GI50 with NCI/ADR-RES, in the assay on NCI-H226, with SN12C, with NCI-H23, in the assay with HL-60 and in the assay with LOX IMVI was > 100 µM (inactive) throughout. Besides, the GI50 in the assay with SF-539, in the assay on OVCAR-4, in the assay on U-251, in the assay on TK-10, in the assay on HOP-92 and with 786-0 was > 100 µM (inactive) each time. In addition, the GI50 in the assay with ACHN and in the assay on CCRF-CEM was > 100 µM (inactive) in each case.
`COc1ccccc1CC(=O)C(O)(C(F)(F)F)C(F)(F)F`: the GI50 in the assay on MDA-MB-435, with M14, with HCC 2998, in the assay with UACC-62, in the assay with T47D and with DU-145 was > 100 µM (inactive) each time. In addition, the GI50 with NCI/ADR-RES, in the assay with NCI-H226, in the assay on SN12C, with NCI-H23, in the assay with HL-60 and in the assay on LOX IMVI was > 100 µM (inactive) throughout. Further, the GI50 in the assay on SF-539, with OVCAR-4, in the assay with U-251, in the assay with TK-10, in the assay with HOP-92 and in the assay on 786-0 was > 100 µM (inactive) throughout. In addition, the GI50 with ACHN and with CCRF-CEM was > 100 µM (inactive) in each case.
As for `CCCCCCCC(=O)OC[n+]1ccc(-c2c(COC(=O)NC(C)C)c(COC(=O)NC(C)C)c3n2CCC3)cc1`, the GI50 in the assay with MDA-MB-435 was 69 µM (inactive); in the assay with M14 it was 49.8 µM (inactive); with HCC 2998, > 100 µM (inactive); in the assay on UACC-62, 13.8 µM (inactive); in the assay on T47D, > 64.9 µM (inactive); in the assay on DU-145, 23.4 µM (inactive). Moreover, the GI50 in the assay with NCI/ADR-RES was 53.8 µM (inactive); in the assay on NCI-H226 it was > 78.5 µM (inactive); with SN12C it was 33.4 µM (inactive); in the assay with NCI-H23 it was 35.2 µM (inactive); with HL-60 it was 14.8 µM (inactive); in the assay with LOX IMVI it was 20.1 µM (inactive). Moreover, the GI50 was 23.1 µM (inactive) in the assay with SF-539; 38.6 µM (inactive) in the assay on OVCAR-4; 51.5 µM (inactive) in the assay on U-251; > 67.5 µM (inactive) in the assay with TK-10; 26.4 µM (inactive) in the assay on HOP-92; 27 µM (inactive) with 786-0. The GI50 with ACHN is 20.4 µM (inactive); with CCRF-CEM, 13.5 µM (inactive).
As to `CN1C(NCCO)=NS(=O)(=O)c2ccccc21`, the GI50 in the assay on MDA-MB-435, with M14, in the assay with HCC 2998, in the assay with UACC-62, with T47D and in the assay with DU-145 was > 100 µM (inactive) each time. Further, the GI50 with NCI/ADR-RES, in the assay on NCI-H226, in the assay with SN12C, with NCI-H23, in the assay on HL-60 and in the assay on LOX IMVI was > 100 µM (inactive) in each case. Moreover, the GI50 in the assay on SF-539, in the assay with OVCAR-4, in the assay with U-251, in the assay on TK-10, with HOP-92 and in the assay on 786-0 was > 100 µM (inactive) in each case. Besides, the GI50 with ACHN and in the assay with CCRF-CEM was > 100 µM (inactive) in each case.
With `COc1ccc2c(c1)N(C(C)=O)CN1C(=O)CCC21` (stereo not given), the GI50 in the assay on MDA-MB-435, with M14, with HCC 2998, in the assay with UACC-62, with T47D and with DU-145 was > 100 µM (inactive) each time. Moreover, the GI50 was > 100 µM (inactive) with NCI/ADR-RES; > 100 µM (inactive) with NCI-H226; > 100 µM (inactive) in the assay on SN12C; > 100 µM (inactive) in the assay with NCI-H23; 48.2 µM (inactive) in the assay on HL-60; > 100 µM (inactive) in the assay on LOX IMVI. Further, the GI50 with SF-539, in the assay with OVCAR-4, in the assay with U-251, with TK-10, in the assay on HOP-92 and with 786-0 was > 100 µM (inactive) each time. Further, the GI50 in the assay with ACHN is > 100 µM (inactive); in the assay with CCRF-CEM, 41.7 µM (inactive).
For the compound `Cc1c(/N=C\c2ccc(N(CCC#N)CCC#N)cc2)c(=O)n(-c2ccccc2)n1C`, the GI50 in the assay on MDA-MB-435 is > 100 µM (inactive); in the assay with M14 it was 92.7 µM (inactive); with HCC 2998 it was > 100 µM (inactive); in the assay with UACC-62 it was > 100 µM (inactive); in the assay with T47D it was > 100 µM (inactive); in the assay on DU-145, > 100 µM (inactive). Also, the GI50 is > 100 µM (inactive) in the assay with NCI/ADR-RES; > 100 µM (inactive) with NCI-H226; > 93.5 µM (inactive) in the assay with SN12C; > 100 µM (inactive) with NCI-H23; > 100 µM (inactive) in the assay with HL-60; > 100 µM (inactive) with LOX IMVI. For the same compound, the GI50 in the assay with SF-539 is 31.6 µM (inactive); in the assay on OVCAR-4, > 100 µM (inactive); in the assay with U-251, 39.2 µM (inactive); in the assay on TK-10, 24.1 µM (inactive); in the assay on HOP-92, 45.7 µM (inactive); in the assay on 786-0 it was 24.4 µM (inactive). Besides, the values for the GI50 with ACHN and in the assay with CCRF-CEM were 22.5 µM (inactive) and > 100 µM (inactive), respectively.
Take `Clc1nc(-c2ccccc2)nc(Cl)c1Cl`: the GI50 was 12.9 µM (inactive) in the assay on MDA-MB-435; 7.14 µM (inactive) in the assay with M14; 7.71 µM (inactive) in the assay on HCC 2998; 13.7 µM (inactive) in the assay with UACC-62; 10 µM (inactive) in the assay with T47D; 15.8 µM (inactive) in the assay on DU-145. In addition, the GI50 is 22.5 µM (inactive) in the assay with NCI/ADR-RES; 12.1 µM (inactive) in the assay with NCI-H226; 16.8 µM (inactive) in the assay on SN12C; 14.7 µM (inactive) in the assay on NCI-H23; 13.2 µM (inactive) in the assay with HL-60; 2.26 µM (inactive) in the assay with LOX IMVI. Moreover, the GI50 in the assay with SF-539 is 18.4 µM (inactive); in the assay with OVCAR-4, 16 µM (inactive); in the assay on U-251, 8.28 µM (inactive); with TK-10 it was 26.7 µM (inactive); in the assay with HOP-92 it was 13.9 µM (inactive); with 786-0, 8.05 µM (inactive). The GI50 is 4.94 µM (inactive) in the assay with ACHN and 2.54 µM (inactive) in the assay with CCRF-CEM.

The values are drawn from ChEMBL document CHEMBL1201862, “PubChem BioAssay data set” (2004).
